Experimental data: PubChem BioAssay AID248 (DTP/NCI, 2004)
Inconclusive results and toxic doses are left out.

Test system: L1210 leukemia ip in BDF1 mice, survival T/C
Test: NCI In Vivo Anticancer Drug Screen. Data for tumor model L1210 Leukemia (intraperitoneal) in B6D2F1 (BDF1) mice
Settings: higher = longer survival
Outline: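 Transplantable tumor model; survival measured in treated vs vehicle control mice. Value = treated/control.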

[1] = endpoint: mean survival time, dose: 50.0 mg/kg/injection, schedule: Q01DX009 (ip), vehicle: saline
[2] = endpoint: mean survival time, dose: 100.0 mg/kg/injection, schedule: Q01DX009 (ip), vehicle: saline
[3] = endpoint: mean survival time, dose: 200.0 mg/kg/injection, schedule: Q01DX009 (ip), vehicle: saline
[4] = endpoint: mean survival time, dose: 100.0 mg/kg/injection, schedule: Q01DX009 (ip), vehicle: acetone
[5] = endpoint: mean survival time, dose: 200.0 mg/kg/injection, schedule: Q01DX009 (ip), vehicle: acetone

CC1CC(C)(O)CC(C(O)CC2CC(=O)NC(=O)C2)C1=O (stereo not given)
T/C (endpoint: mean survival time, dose: 0.02 mg/kg/injection, schedule: Q03HX024 (ip), vehicle: saline): 109 % of control | T/C (endpoint: mean survival time, dose: 0.03 mg/kg/injection, schedule: Q01DX Z (ip), vehicle: other): 118 % of control | T/C (endpoint: mean survival time, dose: 0.04 mg/kg/injection, schedule: Q03HX016 (ip), vehicle: saline): 111 % of control | T/C (endpoint: mean survival time, dose: 0.04 mg/kg/injection, schedule: Q03HX024 (ip), vehicle: saline): 117 % of control | T/C (endpoint: mean survival time, dose: 0.08 mg/kg/injection, schedule: Q01DX005 (ip), vehicle: saline): 120 % of control | T/C (endpoint: mean survival time, dose: 0.08 mg/kg/injection, schedule: Q01DX005 (iv), vehicle: saline): 108 % of control | T/C (endpoint: mean survival time, dose: 0.08 mg/kg/injection, schedule: Q01DX009 (ip), vehicle: saline): 155 % of control | T/C (endpoint: mean survival time, dose: 0.08 mg/kg/injection, schedule: Q01DX Z (ip), vehicle: methylcellulose (MC)): 123 % of control | T/C (endpoint: mean survival time, dose: 0.08 mg/kg/injection, schedule: Q01DX Z (ip), vehicle: other): 119 % of control | T/C (endpoint: mean survival time, dose: 0.08 mg/kg/injection, schedule: Q03HX016 (ip), vehicle: saline): 117 % of control | T/C (endpoint: mean survival time, dose: 0.15 mg/kg/injection, schedule: Q01DX005 (iv), vehicle: saline): 115 % of control | T/C (endpoint: mean survival time, dose: 0.15 mg/kg/injection, schedule: Q01DX009 (ip), vehicle: saline): 87 % of control | T/C (endpoint: mean survival time, dose: 0.15 mg/kg/injection, schedule: Q01DX009 (oral), vehicle: saline): 109 % of control | T/C (endpoint: mean survival time, dose: 0.15 mg/kg/injection, schedule: Q03HX024 (ip), vehicle: saline): 155 % of control | T/C (endpoint: mean survival time, dose: 0.3 mg/kg/injection, schedule: Q01DX001 (iv), vehicle: saline): 105 % of control | T/C (endpoint: mean survival time, dose: 0.3 mg/kg/injection, schedule: Q01DX009 (oral), vehicle: saline): 117 % of control | T/C (endpoint: mean survival time, dose: 0.3 mg/kg/injection, schedule: Q01DX Z (ip), vehicle: methylcellulose (MC)): 155 % of control | T/C (endpoint: mean survival time, dose: 0.3 mg/kg/injection, schedule: Q01DX Z (ip), vehicle: other): 157 % of control | T/C (endpoint: mean survival time, dose: 0.3 mg/kg/injection, schedule: Q03HX016 (ip), vehicle: saline): 161 % of control | T/C (endpoint: mean survival time, dose: 0.3 mg/kg/injection, schedule: Q03HX024 (ip), vehicle: saline): 157 % of control | T/C (endpoint: mean survival time, dose: 0.3 mg/kg/injection, schedule: Q11DX001 (ip), vehicle: saline): 105 % of control | T/C (endpoint: mean survival time, dose: 0.3 mg/kg/injection, schedule: Q14DX008 (ip), vehicle: saline): 112 % of control | T/C (endpoint: mean survival time, dose: 0.6 mg/kg/injection, schedule: Q01DX001 (iv), vehicle: saline): 110 % of control | T/C (endpoint: mean survival time, dose: 0.6 mg/kg/injection, schedule: Q01DX005 (iv), vehicle: saline): 112 % of control | T/C (endpoint: mean survival time, dose: 0.6 mg/kg/injection, schedule: Q01DX009 (oral), vehicle: saline): 95 % of control | T/C (endpoint: mean survival time, dose: 0.6 mg/kg/injection, schedule: Q01DX Z (ip), vehicle: methylcellulose (MC)): 92 % of control | T/C (endpoint: mean survival time, dose: 0.6 mg/kg/injection, schedule: Q08DX002 (ip), vehicle: saline): 124 % of control | T/C (endpoint: mean survival time, dose: 0.6 mg/kg/injection, schedule: Q11DX001 (ip), vehicle: saline): 114 % of control | T/C (endpoint: mean survival time, dose: 0.6 mg/kg/injection, schedule: Q14DX008 (ip), vehicle: saline): 116 % of control | T/C (endpoint: mean survival time, dose: 0.9 mg/kg/injection, schedule: Q01DX Z (ip), vehicle: other): 95 % of control | T/C (endpoint: mean survival time, dose: 1.2 mg/kg/injection, schedule: Q01DX001 (iv), vehicle: saline): 121 % of control | T/C (endpoint: mean survival time, dose: 1.2 mg/kg/injection, schedule: Q01DX005 (ip), vehicle: saline): 88 % of control | T/C (endpoint: mean survival time, dose: 1.2 mg/kg/injection, schedule: Q11DX001 (ip), vehicle: saline): 113 % of control | T/C (endpoint: mean survival time, dose: 1.2 mg/kg/injection, schedule: Q11DX001 (oral), vehicle: saline): 109 % of control | T/C (endpoint: mean survival time, dose: 1.2 mg/kg/injection, schedule: Q14DX008 (ip), vehicle: saline): 113 % of control | T/C (endpoint: mean survival time, dose: 1.35 mg/kg/injection, schedule: Q01DX Z (ip), vehicle: other): 87 % of control | T/C (endpoint: mean survival time, dose: 2.4 mg/kg/injection, schedule: Q01DX001 (iv), vehicle: saline): 118 % of control | T/C (endpoint: mean survival time, dose: 2.4 mg/kg/injection, schedule: Q04DX003 (ip), vehicle: saline): 154 % of control | T/C (endpoint: mean survival time, dose: 2.4 mg/kg/injection, schedule: Q11DX001 (ip), vehicle: saline): 112 % of control | T/C (endpoint: mean survival time, dose: 2.4 mg/kg/injection, schedule: Q11DX001 (oral), vehicle: saline): 101 % of control | T/C (endpoint: mean survival time, dose: 2.4 mg/kg/injection, schedule: Q14DX008 (ip), vehicle: saline): 108 % of control | T/C (endpoint: mean survival time, dose: 4.8 mg/kg/injection, schedule: Q11DX001 (ip), vehicle: saline): 108 % of control | T/C (endpoint: mean survival time, dose: 10.0 micrograms/kg/injection, schedule: Q01DX Z (ip), vehicle: other): 100 % of control | T/C (endpoint: mean survival time, dose: 20.0 micrograms/kg/injection, schedule: Q01DX Z (ip), vehicle: other): 102 % of control | T/C (endpoint: mean survival time, dose: 40.0 micrograms/kg/injection, schedule: Q01DX Z (ip), vehicle: other): 110 % of control | T/C (endpoint: mean survival time, dose: 80.0 micrograms/kg/injection, schedule: Q01DX Z (ip), vehicle: other): 115 % of control | T/C (endpoint: median survival time, dose: 2.0 mg/kg/injection, schedule: Q04DX003 (ip), vehicle: saline): 154 % of control

COc1ccccc1C1CCCC1OS(C)(=O)=O (stereo not given)
T/C (endpoint: mean survival time, dose: 75.0 mg/kg/injection, schedule: Q04DX003 (ip), vehicle: saline): 103 % of control | T/C (endpoint: mean survival time, dose: 100.0 mg/kg/injection, schedule: Q01DX001 (ip), vehicle: saline): 98 % of control | T/C (endpoint: mean survival time, dose: 150.0 mg/kg/injection, schedule: Q04DX003 (ip), vehicle: saline): 100 % of control | T/C (endpoint: mean survival time, dose: 200.0 mg/kg/injection, schedule: Q01DX001 (ip), vehicle: saline): 107 % of control | T/C (endpoint: mean survival time, dose: 300.0 mg/kg/injection, schedule: Q04DX003 (ip), vehicle: saline): 108 % of control | T/C (endpoint: mean survival time, dose: 400.0 mg/kg/injection, schedule: Q01DX001 (ip), vehicle: saline): 96 % of control

COC(=O)c1cn[nH]c1N=Nc1ccc(N(CCCl)CCCl)cc1
T/C (endpoint: mean survival time, dose: 75.0 mg/kg/injection, schedule: Q01DX001 (ip), vehicle: other): 109 % of control | T/C (endpoint: mean survival time, dose: 150.0 mg/kg/injection, schedule: Q01DX001 (ip), vehicle: other): 124 % of control | T/C (endpoint: mean survival time, dose: 300.0 mg/kg/injection, schedule: Q01DX001 (ip), vehicle: other): 119 % of control

Clc1ccc(/C=C/c2ccc3ccccc3n2)cc1
T/C (endpoint: mean survival time, dose: 75.0 mg/kg/injection, schedule: Q01DX Z (ip), vehicle: carboxymethylcellulose (CMC)): 96 % of control | T/C (endpoint: mean survival time, dose: 113.0 mg/kg/injection, schedule: Q01DX Z (ip), vehicle: carboxymethylcellulose (CMC)): 90 % of control | T/C (endpoint: mean survival time, dose: 170.0 mg/kg/injection, schedule: Q01DX Z (ip), vehicle: carboxymethylcellulose (CMC)): 88 % of control | T/C (endpoint: mean survival time, dose: 255.0 mg/kg/injection, schedule: Q01DX Z (ip), vehicle: carboxymethylcellulose (CMC)): 88 % of control

O=C(Nc1ccc([N+](=O)[O-])cc1)N(c1ccccn1)c1ccccn1
T/C (endpoint: mean survival time, dose: 100.0 mg/kg/injection, schedule: Q01DX001 (ip), vehicle: carboxymethylcellulose (CMC)): 89 % of control | T/C (endpoint: mean survival time, dose: 200.0 mg/kg/injection, schedule: Q01DX001 (ip), vehicle: carboxymethylcellulose (CMC)): 91 % of control | T/C (endpoint: mean survival time, dose: 400.0 mg/kg/injection, schedule: Q01DX001 (ip), vehicle: carboxymethylcellulose (CMC)): 95 % of control

CCCCNC(=O)NC(=O)C(C)(C)Oc1ccc(Cl)cc1
T/C [1]: 103 % of control | T/C [2]: 103 % of control | T/C [3]: 95 % of control

CC(Cc1ccc(O)c(O)c1)C(C)Cc1ccc(O)c(O)c1 (stereo not given)
T/C [1]: 98 % of control | T/C [2]: 100 % of control | T/C [3]: 96 % of control | T/C (endpoint: mean survival time, dose: 400.0 mg/kg/injection, schedule: Q01DX009 (ip), vehicle: saline): 100 % of control

COc1ccc(C=C2C(=O)NC(=O)NC2=O)cc1OC
T/C (endpoint: mean survival time, dose: 50.0 mg/kg/injection, schedule: Q01DX009 (ip), vehicle: Klucel (hydroxypropylcellulose) (HPC)): 92 % of control | T/C (endpoint: mean survival time, dose: 100.0 mg/kg/injection, schedule: Q01DX009 (ip), vehicle: Klucel (hydroxypropylcellulose) (HPC)): 96 % of control | T/C (endpoint: mean survival time, dose: 200.0 mg/kg/injection, schedule: Q01DX009 (ip), vehicle: Klucel (hydroxypropylcellulose) (HPC)): 96 % of control

CC1(C)COCOC1
T/C (endpoint: mean survival time, dose: 50.0 mg/kg/injection, schedule: Q01DX009 (ip), vehicle: acetone): 95 % of control | T/C [4]: 98 % of control | T/C [5]: 88 % of control

CC(=O)Nc1c(Cl)c(Cl)c2c(c1Cl)Cc1cc(Cl)ccc1-2
T/C [4]: 90 % of control | T/C (endpoint: mean survival time, dose: 100.0 mg/kg/injection, schedule: Q04DX003 (ip), vehicle: saline): 93 % of control | T/C [5]: 93 % of control | T/C (endpoint: mean survival time, dose: 200.0 mg/kg/injection, schedule: Q04DX003 (ip), vehicle: saline): 91 % of control | T/C (endpoint: mean survival time, dose: 400.0 mg/kg/injection, schedule: Q01DX009 (ip), vehicle: acetone): 95 % of control | T/C (endpoint: mean survival time, dose: 400.0 mg/kg/injection, schedule: Q04DX003 (ip), vehicle: saline): 91 % of control

CC1(C)C2=CCCC(O)C2(C)CCC1O (stereo not given)
T/C (endpoint: mean survival time, dose: 50.0 mg/kg/injection, schedule: Q01DX009 (ip), vehicle: saline with Tween-80): 96 % of control | T/C (endpoint: mean survival time, dose: 100.0 mg/kg/injection, schedule: Q01DX009 (ip), vehicle: saline with Tween-80): 96 % of control | T/C (endpoint: mean survival time, dose: 200.0 mg/kg/injection, schedule: Q01DX009 (ip), vehicle: saline with Tween-80): 92 % of control
